In this test the target is T1, Trx-6×His-BCL6 (human BCL6 BTB domain covering amino-acid sequence 5-129) (Homo sapiens, UniProt P41182).
T1 construct: made in house
Nature of the test: HTRF assay (BCL6 / BCOR peptide). It counts as binding. The note with it: 1 nM Trx-6×His-BCL6, 300 nM BCOR-AF633 peptide, 2 hours incubation at room temperature; for IC50: read-out: HTRF avg pIC50 (converted). The procedure:
After 2 hours incubation at room temperature the plate was read on a Pherastar FSX (BMG Labtech) plate reader equipped with 337 nm laser excitation filter, a first emission filter at 620 nm and a second emission filter at 665 nm. The % inhibition at each concentration was calculated by normalising FRET ratio to the appropriate high (DMSO with all reagents) and low (DMSO without BCL6) controls.

`Cn1c(=O)c2c(c3cc(Nc4nc(N5CC(C)(C)C5)ncc4Cl)ccc31)N[C@@H](C1CC1)C(F)(F)CO2` [Example 11n, (S)-10-((5-chloro-2-(3,3-dimethylazetidin-1-yl)pyrimidin-4-yl)amino)-2-cyclopropyl-3,3-difluoro-7-methyl-1,2,3,4-tetrahydro-[1,4]oxazepino[2,3-c]quinolin-6(7H)-one]: the IC50 was 14.8 nM.
On to `CC1CN(c2ncc(Cl)c(Nc3ccc4c(c3)c3c(c(=O)n4C)OCC(F)(F)[C@H](C4CC4)N3)n2)C1` [Example 11o, (S)-10-((5-chloro-2-(3-methylazetidin-1-yl)pyrimidin-4-yl)amino)-2-cyclopropyl-3,3-difluoro-7-methyl-1,2,3,4-tetrahydro-[1,4]oxazepino[2,3-c]quinolin-6(7H)-one], for which the IC50 was 7.59 nM.
Same read-out and setting: to `Cn1c(=O)c2c(c3cc(Nc4nc(N5CC(C#N)C5)ncc4Cl)ccc31)N[C@@H](C1CC1)C(F)(F)CO2` [Example 11p, (S)-1-(5-chloro-4-((2-cyclopropyl-3,3-difluoro-7-methyl-6-oxo-1,2,3,4,6,7-hexahydro-[1,4]oxazepino[2,3-c]quinolin-10-yl)amino)pyrimidin-2-yl)azetidine-3-carbonitrile] belongs 4.07 nM; to `Cn1c(=O)c2c(c3cc(Nc4nc(N5CC(F)C5)ncc4Cl)ccc31)N[C@@H](C1CC1)C(F)(F)CO2` [Example 11q, (S)-10-((5-chloro-2-(3-fluoroazetidin-1-yl)pyrimidin-4-yl)amino)-2-cyclopropyl-3,3-difluoro-7-methyl-1,2,3,4-tetrahydro-[1,4]oxazepino[2,3-c]quinolin-6(7H)-one], 4.79 nM; to `Cn1c(=O)c2c(c3cc(Nc4nc(N5CC(C)(C#N)C5)ncc4Cl)ccc31)N[C@@H](C1CC1)C(F)(F)CO2` [Example 11s, (S)-1-(5-chloro-4-((2-cyclopropyl-3,3-difluoro-7-methyl-6-oxo-1,2,3,4,6,7-hexahydro-[1,4]oxazepino[2,3-c]quinolin-10-yl)amino)pyrimidin-2-yl)-3-methylazetidine-3-carbonitrile], 3.89 nM.
As for `Cn1c(=O)c2c(c3cc(Nc4nc(N5CC(CC#N)C5)ncc4Cl)ccc31)N[C@@H](C1CC1)C(F)(F)CO2` [Example 11t, (S)-2-(1-(5-chloro-4-((2-cyclopropyl-3,3-difluoro-7-methyl-6-oxo-1,2,3,4,6,7-hexahydro-[1,4]oxazepino[2,3-c]quinolin-10-yl)amino)pyrimidin-2-yl)azetidin-3-yl)acetonitrile], the IC50 is 3.47 nM.
Still for that read-out and setting: with `Cn1c(=O)c2c(c3cc(Nc4nc(N5CC(C(F)F)C5)ncc4Cl)ccc31)N[C@@H](C1CC1)C(F)(F)CO2` [Example 11u, (S)-10-((5-chloro-2-(3-(difluoromethyl)azetidin-1-yl)pyrimidin-4-yl)amino)-2-cyclopropyl-3,3-difluoro-7-methyl-1,2,3,4-tetrahydro-[1,4]oxazepino[2,3-c]quinolin-6(7H)-one] the figure was 11.5 nM; with `Cn1c(=O)c2c(c3cc(Nc4nc(N5CCC5)ncc4Cl)ccc31)N[C@@H](C1CC1)C(F)(F)CO2` [Example 11v, (S)-10-((2-(azetidin-1-yl)-5-chloropyrimidin-4-yl)amino)-2-cyclopropyl-3,3-difluoro-7-methyl-1,2,3,4-tetrahydro-[1,4]oxazepino[2,3-c]quinolin-6(7H)-one], 5.37 nM.
As for `COC1CN(c2ncc(Cl)c(Nc3ccc4c(c3)c3c(c(=O)n4C)OCC(F)(F)[C@H](C4CC4)N3)n2)C1` [Example 11w, (S)-10-((5-chloro-2-(3-methoxyazetidin-1-yl)pyrimidin-4-yl)amino)-2-cyclopropyl-3,3-difluoro-7-methyl-1,2,3,4-tetrahydro-[1,4]oxazepino[2,3-c]quinolin-6(7H)-one], the “HTRF avg pIC50” value was 8.43.
In the case of `COC1(C)CN(c2ncc(Cl)c(Nc3ccc4c(c3)c3c(c(=O)n4C)OCC(F)(F)[C@H](C4CC4)N3)n2)C1` [Example 11x, (S)-10-((5-chloro-2-(3-methoxy-3-methylazetidin-1-yl)pyrimidin-4-yl)amino)-2-cyclopropyl-3,3-difluoro-7-methyl-1,2,3,4-tetrahydro-[1,4]oxazepino[2,3-c]quinolin-6(7H)-one], the IC50 was 3.55 nM.
Same read-out and setting: with `C[C@@H]1C[C@H](N)CN(c2ncc(Cl)c(Nc3ccc4c(c3)c3c(c(=O)n4C)OCC(F)(F)[C@H](C4CC4)N3)n2)C1` [Example 12b, (S)-10-((2-((3S,5R)-3-amino-5-methylpiperidin-1-yl)-5-chloropyrimidin-4-yl)amino)-2-cyclopropyl-3,3-difluoro-7-methyl-1,2,3,4-tetrahydro-[1,4]oxazepino[2,3-c]quinolin-6(7H)-one] the figure was 2.51 nM; with `C[C@H]1C[C@@H](N)CN(c2ncc(Cl)c(Nc3ccc4c(c3)c3c(c(=O)n4C)OCC(F)(F)[C@H](C4CC4)N3)n2)C1` [Example 12c, (S)-10-((2-((3R,5S)-3-amino-5-methylpiperidin-1-yl)-5-chloropyrimidin-4-yl)amino)-2-cyclopropyl-3,3-difluoro-7-methyl-1,2,3,4-tetrahydro-[1,4]oxazepino[2,3-c]quinolin-6(7H)-one], 2.95 nM; with `Cn1c(=O)c2c(c3cc(Nc4nc(N5CC6CC(C5)O6)ncc4Cl)ccc31)N[C@@H](C1CC1)C(F)(F)CO2` [Example 12d, (2S)-10-((2-(6-oxa-3-azabicyclo[3.1.1]heptan-3-yl)-5-chloropyrimidin-4-yl)amino)-2-cyclopropyl-3,3-difluoro-7-methyl-1,2,3,4-tetrahydro-[1,4]oxazepino[2,3-c]quinolin-6(7H)-one], 4.9 nM.
Consider `C[C@@H]1CN(C)CCN(c2ncc(Cl)c(Nc3ccc4c(c3)c3c(c(=O)n4C)OCC(F)(F)[C@H](C4CC4)N3)n2)C1` [Example 12g, (S)-10-((5-chloro-2-((R)-4,6-dimethyl-1,4-diazepan-1-yl)pyrimidin-4-yl)amino)-2-cyclopropyl-3,3-difluoro-7-methyl-1,2,3,4-tetrahydro-[1,4]oxazepino[2,3-c]quinolin-6(7H)-one:(S)-10-((5-chloro-2-((S)-4,6-dimethyl-1,4-diazepan-1-yl)pyrimidin-4-yl)amino)-2-cyclopropyl-3,3-difluoro-7-methyl-1,2,3,4-tetrahydro-[1,4]oxazepino[2,3-c]quinolin-6(7H)-one (1:1)], for which the IC50 was 2.63 nM.
On to `C[C@H]1CCN(c2ncc(Cl)c(Nc3ccc4c(c3)c3c(c(=O)n4C)OCC(F)(F)[C@H](C4CC4)N3)n2)C1` [Example 12x01, (S)-10-((5-chloro-2-((S)-3-methylpyrrolidin-1-yl)pyrimidin-4-yl)amino)-2-cyclopropyl-3,3-difluoro-7-methyl-1,2,3,4-tetrahydro-[1,4]oxazepino[2,3-c]quinolin-6(7H)-one], for which the IC50 was 26.9 nM.
As for `C[C@@H]1CCN(c2ncc(Cl)c(Nc3ccc4c(c3)c3c(c(=O)n4C)OCC(F)(F)[C@H](C4CC4)N3)n2)C1` [Example 12x02, (S)-10-((5-chloro-2-((R)-3-methylpyrrolidin-1-yl)pyrimidin-4-yl)amino)-2-cyclopropyl-3,3-difluoro-7-methyl-1,2,3,4-tetrahydro-[1,4]oxazepino[2,3-c]quinolin-6(7H)-one], the IC50 was 21.4 nM.
As for `C[C@H]1C[C@@H](F)CN(c2ncc(Cl)c(Nc3ccc4c(c3)c3c(c(=O)n4C)OCC(F)(F)[C@H](C4CC4)N3)n2)C1` [Example 12x03, (S)-10-((5-chloro-2-((3R,5S)-3-fluoro-5-methylpiperidin-1-yl)pyrimidin-4-yl)amino)-2-cyclopropyl-3,3-difluoro-7-methyl-1,2,3,4-tetrahydro-[1,4]oxazepino[2,3-c]quinolin-6(7H)-one], the IC50 was 15.5 nM.
In the case of `CO[C@@H]1C[C@H](C)CN(c2ncc(Cl)c(Nc3ccc4c(c3)c3c(c(=O)n4C)OCC(F)(F)[C@H](C4CC4)N3)n2)C1` [Example 12x05, (S)-10-((5-chloro-2-((3R,5S)-3-methoxy-5-methylpiperidin-1-yl)pyrimidin-4-yl)amino)-2-cyclopropyl-3,3-difluoro-7-methyl-1,2,3,4-tetrahydro-[1,4]oxazepino[2,3-c]quinolin-6(7H)-one], the IC50 is 3.72 nM.
On the same count and under the same terms, with `CC1CN(c2ncc(Cl)c(Nc3ccc4c(c3)c3c(c(=O)n4C)OCC(F)(F)[C@H](C4CC4)N3)n2)CC(C)S1` (stereo partly drawn) [Example 12x06, (2S)-10-((5-chloro-2-(2,6-dimethylthiomorpholino)pyrimidin-4-yl)amino)-2-cyclopropyl-3,3-difluoro-7-methyl-1,2,3,4-tetrahydro-[1,4]oxazepino[2,3-c]quinolin-6(7H)-one] the figure was 30.2 nM.
On the same count and under the same terms, with `CC1CCCN(c2ncc(Cl)c(Nc3ccc4c(c3)c3c(c(=O)n4C)OCC(F)(F)[C@H](C4CC4)N3)n2)C1C` (stereo partly drawn) [Example 12x08, (2S)-10-((5-chloro-2-(2,3-dimethylpiperidin-1-yl)pyrimidin-4-yl)amino)-2-cyclopropyl-3,3-difluoro-7-methyl-1,2,3,4-tetrahydro-[1,4]oxazepino[2,3-c]quinolin-6(7H)-one] the figure was 58.9 nM; with `CC1CN(c2ncc(Cl)c(Nc3ccc4c(c3)c3c(c(=O)n4C)OCC(F)(F)[C@H](C4CC4)N3)n2)CC(C)[S+]1[O-]` (stereo partly drawn) [Example 12x09, (2S)-10-((5-chloro-2-(2,6-dimethyl-1-oxidothiomorpholino)pyrimidin-4-yl)amino)-2-cyclopropyl-3,3-difluoro-7-methyl-1,2,3,4-tetrahydro-[1,4]oxazepino[2,3-c]quinolin-6(7H)-one], 1.7 nM; with `CC1CCC(CO)N(c2ncc(Cl)c(Nc3ccc4c(c3)c3c(c(=O)n4C)OCC(F)(F)[C@H](C4CC4)N3)n2)C1` (stereo partly drawn) [Example 12x10, (2S)-10-((5-chloro-2-(2-(hydroxymethyl)-5-methylpiperidin-1-yl)pyrimidin-4-yl)amino)-2-cyclopropyl-3,3-difluoro-7-methyl-1,2,3,4-tetrahydro-[1,4]oxazepino[2,3-c]quinolin-6(7H)-one], 11.7 nM.
